In experiment [1] the target is T1, KATP-channels on pancreatic beta-cells (Homo sapiens, UniProt Q09428).
T1 construct: KATP-channels on pancreatic beta-cells; host or cells: pancreatic beta-cells (endogenous)
The settings on record: by activation of KATP-channels on pancreatic beta-cells; cited from earlier work.

Experiment [2] relates to hyperinsulinemic obese individuals. The following applies: 8 weeks treatment; cited from earlier work.
A further experiment concerns obese Zucker rats. The following applies: cited from earlier work.
For experiment [3], the system named is fed male obese Zucker rat. Nature of the experiment: The snacking model: consumption of a palatable high fat or low fat meal. It is filed as in vivo. From the text:
Rats are habituated to the presence of a palatable high fat meal (Research diets 45% fat D12451) or another palatable low fat meal (Research diets 10% fat D12450B) in their home cage during four hours in the morning two times a week, 9-13a.m. The rats feed ad libitum on rat chow (Altromin #1324, 4% fat) outside the hours of the session and water is present adlibitum. The consumption of the meal is monitored, and as it stabilises, by 7-9 sessions, the animal is ready for use.
The animals are tested two times a week, and the baseline is re-established within 24h. During the experimental session, the compound is administered 30 minutes before the session starts. Food and water intake is monitored at 2 and 4 hours after the meal is presented.

For a further experiment, the system named is rats. The following applies: cited from earlier work.
The test system of the next experiment is mice. The settings on record: intracerebroventricular administration; cited from earlier work.
Where [4] appears, read: 30 mg/kg PO admin., 30 minutes before session.

T1 sequence (Q09428 whole entry): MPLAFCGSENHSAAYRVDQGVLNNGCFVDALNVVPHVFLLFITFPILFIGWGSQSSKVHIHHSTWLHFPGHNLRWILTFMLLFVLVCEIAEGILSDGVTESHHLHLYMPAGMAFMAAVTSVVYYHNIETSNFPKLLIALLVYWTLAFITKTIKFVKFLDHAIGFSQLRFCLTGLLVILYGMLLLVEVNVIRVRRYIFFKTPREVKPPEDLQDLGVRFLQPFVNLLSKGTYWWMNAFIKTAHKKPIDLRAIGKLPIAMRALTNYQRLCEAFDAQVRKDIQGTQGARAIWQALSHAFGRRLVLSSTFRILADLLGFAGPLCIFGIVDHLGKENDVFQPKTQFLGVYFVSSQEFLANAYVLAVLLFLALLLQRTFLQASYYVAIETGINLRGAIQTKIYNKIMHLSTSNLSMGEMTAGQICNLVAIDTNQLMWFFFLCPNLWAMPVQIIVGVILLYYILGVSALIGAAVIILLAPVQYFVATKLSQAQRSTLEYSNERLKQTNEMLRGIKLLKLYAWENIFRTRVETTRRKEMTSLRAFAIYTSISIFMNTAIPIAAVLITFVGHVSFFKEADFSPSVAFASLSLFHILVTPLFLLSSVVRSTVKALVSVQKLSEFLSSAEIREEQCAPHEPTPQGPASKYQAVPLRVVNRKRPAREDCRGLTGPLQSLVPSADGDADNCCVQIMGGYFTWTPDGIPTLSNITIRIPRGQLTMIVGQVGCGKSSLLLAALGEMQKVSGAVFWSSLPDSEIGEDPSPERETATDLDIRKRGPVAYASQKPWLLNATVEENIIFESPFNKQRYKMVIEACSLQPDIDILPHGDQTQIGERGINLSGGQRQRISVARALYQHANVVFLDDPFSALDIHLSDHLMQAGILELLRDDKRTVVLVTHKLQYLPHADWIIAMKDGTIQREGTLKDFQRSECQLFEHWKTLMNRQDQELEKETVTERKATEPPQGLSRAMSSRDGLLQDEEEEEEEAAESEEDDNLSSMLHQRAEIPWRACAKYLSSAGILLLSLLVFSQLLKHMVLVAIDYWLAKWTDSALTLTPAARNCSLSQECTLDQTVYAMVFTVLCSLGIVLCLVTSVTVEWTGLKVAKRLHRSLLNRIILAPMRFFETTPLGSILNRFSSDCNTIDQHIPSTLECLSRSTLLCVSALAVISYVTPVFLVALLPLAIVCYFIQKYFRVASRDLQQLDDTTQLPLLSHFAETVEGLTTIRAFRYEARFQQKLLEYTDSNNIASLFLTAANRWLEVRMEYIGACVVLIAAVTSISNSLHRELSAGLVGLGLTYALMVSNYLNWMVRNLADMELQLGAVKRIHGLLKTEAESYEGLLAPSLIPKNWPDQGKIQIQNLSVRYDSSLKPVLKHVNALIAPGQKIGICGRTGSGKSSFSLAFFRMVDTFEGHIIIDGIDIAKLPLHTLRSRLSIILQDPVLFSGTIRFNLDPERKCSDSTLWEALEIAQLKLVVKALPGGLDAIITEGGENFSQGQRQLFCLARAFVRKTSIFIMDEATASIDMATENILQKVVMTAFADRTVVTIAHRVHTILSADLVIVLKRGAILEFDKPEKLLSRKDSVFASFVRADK
T1 sequence (Q14654 whole entry partner): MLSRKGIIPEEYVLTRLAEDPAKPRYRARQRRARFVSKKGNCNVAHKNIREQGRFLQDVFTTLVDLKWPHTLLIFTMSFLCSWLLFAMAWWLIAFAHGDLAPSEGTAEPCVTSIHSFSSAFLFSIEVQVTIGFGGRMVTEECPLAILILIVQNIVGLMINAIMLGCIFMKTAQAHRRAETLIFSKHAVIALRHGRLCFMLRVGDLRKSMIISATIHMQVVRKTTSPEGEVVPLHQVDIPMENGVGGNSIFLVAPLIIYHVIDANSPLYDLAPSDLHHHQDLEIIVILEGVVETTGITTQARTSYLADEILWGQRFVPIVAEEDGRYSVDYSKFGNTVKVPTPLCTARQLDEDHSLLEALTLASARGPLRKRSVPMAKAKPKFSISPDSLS

Take `CC1=Nc2ccc(Cl)cc2S(=O)(=O)N1` [Diazoxide, 7-chloro-3-methyl-2H-1,2,4-benzothiadiazine 1,1-dioxide]: in experiment [1], the insulin release result is “inhibit insulin release”. For the same compound, the antiobesity effect result in experiment [2] was “significant antiobesity effect”. Further, in the experiment with obese Zucker rats (adipose tissue of Zucker rats), the “leptin and lipid metabolising enzymes” value is “down-regulate leptin and lipid metabolising enzymes”. In the experiment on obese Zucker rats (obese Zucker rats), the glucose tolerance result is “improve glucose tolerance”, the insulin receptor binding entry was “increase insulin receptor binding”, the insulin secretion entry is given as “decrease insulin secretion” and the weight gain result is given as “decrease weight gain”. For the same compound, in experiment [3] (setting [4]), the “reduced consumption of a high fat meal (45 kcal % fat)” value (“reduced consumption … (45 kcal % fat)” for short) came out at 53% and the “reduced consumption of a low fat meal (10 kcal % fat)” value (“reduced consumption … (10 kcal % fat)” below) is 42%.
`COc1ccc(Cl)cc1C(=O)NCCc1ccc(S(=O)(=O)NC(=O)NC2CCCCC2)cc1` [glibenclamide]: the food intake entry with rats (central administration) is given as “reduce food intake”.
As to `CC1(NC2=NS(=O)(=O)c3sc(Cl)cc3N2)CC1` [6-Chloro-3-(1-methylcyclopropyl)amino-4H-thieno[3,2-e]-1,2,4-thiadiazine 1,1-dioxide], the figures for the “reduced consumption … (45 kcal % fat)” value in experiment [3] (5 mg/kg PO admin.), in experiment [3] (15 mg/kg PO admin.) and in experiment [3] (setting [4]) were 44%, 64% and 86%, respectively. The “reduced consumption … (10 kcal % fat)” value in experiment [3] (5 mg/kg PO admin.) is reported as 15%; in experiment [3] (15 mg/kg PO admin.), 57%; in experiment [3] (setting [4]) it was 75%.
Consider `CC(C)NC1=NS(=O)(=O)c2sc(Cl)cc2N1` [6-Chloro-3-isopropylamino-4H-thieno[3,2-e]-1,2,4-thiadiazine 1,1-dioxide], for which, in experiment [3] (setting [4]), the “reduced consumption … (45 kcal % fat)” value stood at 77% and the “reduced consumption … (10 kcal % fat)” value was found to be 61%.
As to `CC1(C)Oc2ccc(C#N)cc2C(N2CCCC2=O)C1O` (stereo not drawn) [cromakalim], the intake of food result is “increase to intake of food” with mice and “reduces the intake of food” in the experiment on rats (intraperitonal administration).
As to `CC(N/C(=N\C#N)Nc1ccncc1)C(C)(C)C` (stereo not drawn) [pinacidil], the intake of food result in the experiment on mice is “increase to intake of food”.

The record behind these values is patent US20020035106A1, “Use of potassium channel agonists for reducing fat food consumption” (priority 2000, published 2002).
